Experimental findings from patent publication US12059425B2, “Heterocyclic compounds and uses thereof” (Kumquat Biosciences Inc., priority 2022, dated 2024) are described below.

Experiment [1] addresses T1, K-Ras G12D (Homo sapiens, UniProt P01116, G12D).
T1 construct: made in house; host or cells: E. coli, e.g. BL21 (DE3)
Description: PPI-HTRF assay, K-Ras G12D / SOS1 interaction. The format is biochemical. Particulars: HTRF, K-Ras G12D; read-out: PPI-HTRF-5 nM (K-Ras G12D IC50). A digest of the protocol: (§1)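 HTRF readout: 665/620 nm ratio (ex 337 nm) after ≥10 min incubation. Donor anti-GST-Eu(K) sits on GST-K-Ras (WT, G12D, G12V or G12S) and acceptor anti-6His-XL665 on His-hSOS1. Buffer ~5 mM HEPES pH 7.4, ~150 mM NaCl, ~1 mM DTT, 0.05% BSA, 0.0025% Igepal. Duplicate 6-point dilution, 10–0.01 μM, fitted to IC50.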
(Time-resolved FRET reads energy transfer from a long-lived donor to a nearby acceptor.)

Experiment [2] addresses T2, K-Ras G12S (Homo sapiens, UniProt P01116, G12S).
T2 construct: made in house; host or cells: E. coli, e.g. BL21 (DE3)
In words: PPI-HTRF assay, K-Ras G12S / SOS1 interaction. The format is biochemical. The note with it: read-out: PPI-HTRF-5 nM (K-Ras G12S IC50). A digest of the protocol: as §1

Experiment [3] has as its target T3, K-Ras G12V (Homo sapiens, UniProt P01116, G12V).
T3 construct: made in house; host or cells: E. coli, e.g. BL21 (DE3)
Description: PPI-HTRF assay, K-Ras G12V / SOS1 interaction. The note with it: HTRF, K-Ras G12V; read-out: PPI-HTRF-5 nM (K-Ras G12V IC50). The format is biochemical. A digest of the protocol: as §1

Experiment [4] concerns the target T4, wildtype K-Ras (Homo sapiens, UniProt P01116).
T4 construct: made in house; host or cells: E. coli, e.g. BL21 (DE3)
In words: PPI-HTRF assay, wildtype K-Ras / SOS1 interaction. The format is biochemical. Particulars: HTRF, K-Ras wt; read-out: PPI-HTRF-5 nM (K-Ras wt IC50). In outline: as §1

The test system of experiment [5] is GP2D cells. Description: Ras cellular assay, cell proliferation GP2D. Type of experiment: cell-based. A digest of the protocol:
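GP2D cells (G12D Ras mutant) seeded (e.g., 800/well) and treated the next day with a dilution series (e.g., 9-point, 3-fold). After approximately 5 days, viability measured by CellTiter-Glo luminescence; IC50 from four-parameter fit.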

Experiment [6] deals with A549 cells. In words: Ras cellular assay, cell proliferation A549. The format is cell-based. The note with it: Homo sapiens. In outline: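 G12S-mutant A549 cells (800/well) in RPMI-1640 plus 10% heat-inactivated FBS, standard or ultra-low attachment 384-well plates, dosed the day after plating with a 10-point 3-fold series. Viability by CellTiter-Glo luminescence about 6 days later; IC50 from four-parameter fit.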

Experiment [7] deals with SW620 cells. Description: Ras cellular assay, cell proliferation SW620. Type of experiment: cell-based. The note with it: Homo sapiens, SW-620. The source says: For example, this assay can be also used to assess selective growth inhibition of a mutant Ras protein relative to a wildtype, or relative to a different mutant Ras protein.

Bounds are passed on as bounds.

The term IC50 denotes the concentration at which inhibition is half-maximal.

T4 sequence (P01116 1-188 isoform P01116-2): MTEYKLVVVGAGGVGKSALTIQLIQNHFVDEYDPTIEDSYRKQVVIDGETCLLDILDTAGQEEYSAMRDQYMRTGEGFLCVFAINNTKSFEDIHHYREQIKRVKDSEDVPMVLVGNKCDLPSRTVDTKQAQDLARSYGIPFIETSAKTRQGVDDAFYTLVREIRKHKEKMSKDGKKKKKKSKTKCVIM
T3 sequence (P01116 1-188 isoform P01116-2 G12V): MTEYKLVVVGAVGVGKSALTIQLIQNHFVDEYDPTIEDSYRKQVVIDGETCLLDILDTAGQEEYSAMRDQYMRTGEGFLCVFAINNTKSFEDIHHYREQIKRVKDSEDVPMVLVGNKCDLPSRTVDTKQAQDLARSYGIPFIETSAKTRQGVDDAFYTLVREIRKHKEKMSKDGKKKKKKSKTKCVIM
T2 sequence (P01116 1-188 isoform P01116-2 G12S): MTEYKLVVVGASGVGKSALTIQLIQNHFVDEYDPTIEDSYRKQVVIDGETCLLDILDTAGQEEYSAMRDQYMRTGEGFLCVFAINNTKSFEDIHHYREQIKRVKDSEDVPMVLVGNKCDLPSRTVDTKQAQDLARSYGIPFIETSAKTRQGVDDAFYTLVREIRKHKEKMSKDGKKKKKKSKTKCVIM
T1 sequence (P01116 1-188 isoform P01116-2 G12D): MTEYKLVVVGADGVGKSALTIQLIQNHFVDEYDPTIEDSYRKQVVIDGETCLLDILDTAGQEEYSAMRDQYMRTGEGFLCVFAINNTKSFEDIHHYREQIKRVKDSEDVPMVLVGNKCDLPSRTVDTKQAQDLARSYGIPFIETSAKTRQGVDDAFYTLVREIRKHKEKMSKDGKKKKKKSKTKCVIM

Regarding `N#Cc1c(N)sc2c(F)ccc(-c3c(Cl)c4c5c(nc(OC[C@@]67CCCN6C[C@H](F)C7)nc5c3F)N3C(CCC3COC(F)F)CO4)c12` (stereo partly drawn) [compound 161, 2-amino-4-(6-chloro-11-((difluoromethoxy)methyl)-4-fluoro-2-(((2R,7aS)-2-fluorotetrahydro-1H-pyrrolizin-7a(5H)-yl)methoxy)-8a,9,10,11-tetrahydro-8H-pyrrolo[2′,1′:3,4][1,4]oxazepino[5,6,7-de]quinazolin-5-yl)-7-fluorobenzo[b]thiophene-3-carbonitrile], the IC50 in experiment [1], in experiment [2], in experiment [3], in experiment [4], in experiment [5] and in experiment [6] was < 5 µM each time. Moreover, the half-maximal inhibitory concentration (IC50) in experiment [7] is < 5 µM.
Take `N#Cc1c(N)sc2c(F)ccc(-c3c(Cl)c4c5c(nc(OC[C@@]67CCCN6C[C@H](F)C7)nc5c3F)N3CC[C@@H]3CCO4)c12` [compound 167, 2-amino-4-((12aR)-9-chloro-7-fluoro-5-(((2R,7aS)-2-fluorotetrahydro-1H-pyrrolizin-7a(5H)-yl)methoxy)-1,11,12,12a-tetrahydro-2H-azeto[11,2′:5,6][1,5]oxazocino[4,3,2-de]quinazolin-8-yl)-7-fluorobenzo[b]thiophene-3-carbonitrile]: the IC50 in experiment [1], in experiment [2], in experiment [3], in experiment [4], in experiment [5] and in experiment [6] was < 5 µM each time. Besides, the half-inhibitory concentration (IC50) in experiment [7] is < 5 µM.
Turning to `N#Cc1c(N)sc2c(F)ccc(-c3c(Cl)c4c5c(nc(OCC67CCCN6C[C@H](F)C7)nc5c3F)N3CCCC[C@H]3CO4)c12` (stereo partly drawn) [compound 168, 2-amino-4-((5aS)-3-chloro-1-fluoro-12-(((2R,7aS)-2-fluorohexahydro-1H-pyrrolizin-7a-yl)methoxy)-5,5a,6,7,8,9-hexahydropyrido[2′,1′:3,4][1,4]oxazepino[5,6,7-de]quinazolin-2-yl)-7-fluorobenzo[b]thiophene-3-carbonitrile], the IC50 in experiment [1], in experiment [2], in experiment [3], in experiment [4], in experiment [5] and in experiment [6] was < 5 µM throughout. Moreover, in experiment [7], the half-maximal inhibitory concentration (IC50) is < 5 µM.
Take `N#Cc1c(N)sc2c(F)ccc(-c3c(Cl)c4c5c(nc(OC[C@@]67CCCN6C[C@H](F)C7)nc5c3F)N3CCN(CC(F)F)CCC3CO4)c12` (stereo partly drawn) [compound 170, 2-amino-4-(6-chloro-11-(2,2-difluoroethyl)-4-fluoro-2-(((2R,7aS)-2-fluorotetrahydro-1H-pyrrolizin-7a(5H)-yl)methoxy)-8a,9,10,11,12,13-hexahydro-8H-[1,4]diazepino[7′,1′:3,4][1,4]oxazepino [5,6,7-de]quinazolin-5-yl)-7-fluorobenzo[b]thiophene-3-carbonitrile]: the IC50 in experiment [1], in experiment [2], in experiment [3], in experiment [4], in experiment [5] and in experiment [6] was < 5 µM throughout. Further, the IC50 in experiment [7] was < 5 µM.
For `N#Cc1c(N)sc2c(F)ccc(-c3c(Cl)c4c5c(nc(OC[C@@]67CCCN6C[C@H](F)C7)nc5c3F)N(CCC3CNC3)C3COCC3CO4)c12` (stereo partly drawn) [compound 171, 2-amino-4-(12-(2-(azetidin-3-yl)ethyl)-6-chloro-4-fluoro-2-(((2R,7aS)-2-fluorotetrahydro-1H-pyrrolizin-7a(5H)-yl)methoxy)-8a,9,11a,12-tetrahydro-8H,11H-furo[3′,4′:6,7][1,5]oxazocino[4,3,2-de]quinazolin-5-yl)-7-fluorobenzo[b]thiophene-3-carbonitrile], the half-inhibitory concentration (IC50) is < 5 µM in experiment [1]; < 5 µM in experiment [2]; < 5 µM in experiment [3]; < 5 µM in experiment [4]; < 5 µM in experiment [5]; > 5 µM in experiment [6]. Moreover, in experiment [7], the IC50 was > 5 µM.
Regarding `CC(=O)N1CC2Oc3c(Cl)c(-c4ccc(F)c5sc(N)c(C#N)c45)c(F)c4nc(OC[C@@]56CCCN5C[C@H](F)C6)nc(c34)N(C)C2C1` (stereo partly drawn) [compound 172, 4-(9-acetyl-6-chloro-4-fluoro-2-(((2R,7aS)-2-fluorotetrahydro-1H-pyrrolizin-7a(5H)-yl)methoxy)-11-methyl-7a,8,9,10,10a,11-hexahydropyrrolo[3′,4′:2,3][1,4]oxazepino [5,6,7-de]quinazolin-5-yl)-2-amino-7-fluorobenzo[b]thiophene-3-carbonitrile], the concentration for half-maximal inhibition (IC50) was < 5 µM in experiment [1]; < 5 µM in experiment [2]; < 5 µM in experiment [3]; < 5 µM in experiment [4]; > 5 µM in experiment [5]; > 5 µM in experiment [6]. Moreover, the IC50 in experiment [7] was > 5 µM.
Turning to `COC[C@H]1C[C@H]2COc3c(Cl)c(-c4ccc(F)c5sc(N)c(C#N)c45)c(F)c4nc(OC[C@@]56CCCN5C[C@H](F)C6)nc(c34)N21` [compound 173, 2-amino-4-(9-chloro-7-fluoro-5-(((2R,7aS)-2-fluorotetrahydro-1H-pyrrolizin-7a(5H)-yl)methoxy)-2-(methoxymethyl)-1,2,11,11a-tetrahydroazeto[2′,1′:3,4][1,4]-oxazepino[5,6,7-de]quinazolin-8-yl)-7-fluorobenzo[b]thiophene-3-carbonitrile], the concentration for half-maximal inhibition (IC50) in experiment [1], in experiment [2], in experiment [3], in experiment [4], in experiment [5] and in experiment [6] was < 5 µM each time. In addition, the IC50 in experiment [7] is < 5 µM.
On to `N#Cc1c(N)sc2c(F)ccc(-c3c(Cl)c4c5c(nc(OC[C@@]67CCCN6C[C@H](F)C7)nc5c3F)N(CC(F)F)C3CNCC3O4)c12` (stereo partly drawn) [compound 175, 2-amino-4-(6-chloro-11-(2,2-difluoroethyl)-4-fluoro-2-(((2R,7aS)-2-fluorotetrahydro-1H-pyrrolizin-7a(5H)-yl)methoxy)-7a,8,9,10,10a,11-hexahydropyrrolo[3′,4′:2,3][1,4]oxazepino [5,6,7-de]quinazolin-5-yl)-7-fluorobenzo[b]thiophene-3-carbonitrile], for which the IC50 in experiment [1], in experiment [2], in experiment [3], in experiment [4], in experiment [5] and in experiment [6] was < 5 µM in each case. Also, the IC50 in experiment [7] was < 5 µM.
Regarding `N#Cc1c(N)sc2c(F)ccc(-c3c(Cl)c4c5c(nc(OC[C@@]67CCCN6C[C@H](F)C7)nc5c3F)N3CC(F)(F)C[C@@H]3CO4)c12` [compound 176, 2-amino-4-((8aR)-6-chloro-4,10,10-trifluoro-2-(((2R,7aS)-2-fluorotetrahydro-1H-pyrrolizin-7a(5H)-yl)methoxy)-8a,9,10,11-tetrahydro-8H-pyrrolo[2′,1′:3,4][1,4]oxazepino[5,6,7-de]quinazolin-5-yl)-7-fluorobenzo[b]thiophene-3-carbonitrile], the IC50 in experiment [1], in experiment [2], in experiment [3], in experiment [4], in experiment [5] and in experiment [6] was < 5 µM in each case. The IC50 in experiment [7] was < 5 µM.
In the case of `N#Cc1c(N)sc2c(F)ccc(-c3c(Cl)c4c5c(nc(OC[C@@]67CCCN6C[C@H](F)C7)nc5c3F)N3CCC3CO4)c12` (stereo partly drawn) [compound 178, 2-amino-4-(6-chloro-4-fluoro-2-(((2R,7aS)-2-fluorotetrahydro-1H-pyrrolizin-7a(5H)-yl)methoxy)-8,8a,9,10-tetrahydroazeto[2′,1′:3,4][1,4]oxazepino [5,6,7-de]quinazolin-5-yl)-7-fluorobenzo[b]thiophene-3-carbonitrile], the IC50 in experiment [1], in experiment [2], in experiment [3], in experiment [4], in experiment [5] and in experiment [6] was < 5 µM in each case. For the same molecule, the concentration for half-maximal inhibition (IC50) in experiment [7] was < 5 µM.
Regarding `N#Cc1c(N)sc2c(F)ccc(-c3c(Cl)c4c5c(nc(OC[C@@]67CCCN6C[C@H](F)C7)nc5c3F)N3CC(F)(F)C[C@H]3CO4)c12` [compound 181], the half-maximal inhibitory concentration (IC50) in experiment [1], in experiment [2], in experiment [3], in experiment [4], in experiment [5] and in experiment [6] was < 5 µM in each case. In addition, the concentration for half-maximal inhibition (IC50) in experiment [7] is < 5 µM.
